From patent US10265692B2, “Ex vivo methods for predicting and confirming in vivo metabolism of pharmaceutically active compounds” (Empiriko Corporation, priority 2013, dated 2019)

How the values were obtained:
[1] = Furosemide oxidation by conventional method with octabromo tetrakis(2,6-dichlorophenyl)porphyrin Fe(III)Cl and hydrogen peroxide, with or without imidazole co-catalyst, metabolites by LC/MS-ESI; type: in vitro ADME; conditions: DMSO, H2O2, 24 hours; for furosemide metabolites produced, No Co-Catalyst: control without imidazole; for furosemide metabolites produced, Imidazole Co-Catalyst: with imidazole co-catalyst
Experimental: Furosemide API (12.5 mg, 0.0378 mmol) in DMSO (0.1 M) was added to octabromo tetrakis(2,6-dichlorophenyl)porphyrin Fe(III)Cl (0.6 mg, 0.000378 mmol), followed by imidazole (0.13 mg, 0.00189 mmol). Over a 1 hour period, 50% w/w hydrogen peroxide (6.44 uL, […]) was added dropwise. An additional amount of hydrogen peroxide was added after 2 hours. The reaction was monitored by LC and stopped after 24 hours.
A control reaction was run under the exact parameters as stated above, without the addition of imidazole as a co-catalyst.
Samples analyzed according to parameters in Example 1.

[2] = Ex vivo prediction of drug-to-drug interaction: microwave oxidation of drug mixtures with Octabromo tetrakis(2,6-dichlorophenyl)porphyrin Fe(III)Cl and sodium hypochlorite, metabolites by LC/MS; conditions: saxagliptin reacted in mixture with Metformin, porphyrin Fe(III)Cl catalyst, NaOCl
Experimental: Metformin and Saxagliptin Mixture Microwave Protocol: Metformin Hydrochloride (8.19 mg, 0.06341 mmol) in 1:0.25 mL acetonitrile:water was reacted with potassium carbonate (10.96 mg, 0.07926) and stirred at 40° C. for 30 minutes in a microwave tube. Saxagliptin API (20.0 mg, 0.06341 mmol) extracted using 40 mL 1:1 methanol:ethanol, filtered and concentrated in vacuo. The resulting solid taken up in 2:0.25 mL acetonitrile:water and transferred to microwave tube. Octabromo tetrakis(2,6-dichlorophenyl)porphyrin Fe(III)Cl (10.21 mg, 0.006341 mmol) then added, followed by sodium hypochlorite (156.6 uL, 0.3171 mmol). Reaction run in the microwave at 80° C. for 30 minutes (CC-03-149A).

Structure (SMILES)	furosemide metabolites produced, No Co-Catalyst [1]	furosemide metabolites produced, Imidazole Co-Catalyst [1]	Presence of Saxagliptin metabolites [2]
NS(=O)(=O)c1cc2c(cc1Cl)N1CC(=O)C=CC1OC2=O (stereo not shown) [FUR1]	Present	Present	
NS(=O)(=O)c1cc(C(=O)[O-])c(-[n+]2cccc(O)c2)cc1Cl [FUR2]	Present	Present	
Nc1cc(Cl)c(S(N)(=O)=O)cc1C(=O)O [FUR3]	Present	Present	
NS(=O)(=O)c1cc2c(cc1Cl)[N+]1(O)CC(=O)C(O)C(=O)C1OC2=O (stereo not shown) [FUR4]		Present	
NS(=O)(=O)c1cc2c(cc1Cl)[N+]1([O-])CC(=O)C=CC1OC2=O (stereo not shown) [FUR5]		Present	
NS(=O)(=O)c1cc(C(=O)O)c(NCC(=O)CCC(=O)O)cc1Cl [FUR6]		Present	
N#C[C@@H]1C[C@@H]2C[C@@H]2N1C(=O)C(N)C12CC3CC(O)(CC(O)(C3)C1)C2 (stereo partly shown) [Hydroxy-Saxagliptin]			Not Detected
